The text below walks through data of patent US9393288B2, “Methods of treating diseases associated with PPARγ” (The University of Vermont and State Agricultural College, priority 2012, dated 2016).

The test system of the test is middle cerebral arteries (MCA). In words: Pressurized arteriograph: vascular reactivity and structure of MCA from relaxin-treated NP Sprague Dawley rats. Type of test: in vivo, rat. Conditions: relaxin- vs vehicle-treated NP rats. From the text: Animals and Treatment Groups: All procedures were approved by the Institutional Animal Care and Use Committee and conducted in accordance with the National Institutes of Health Guide for the Care and Use of Laboratory Animals. Female virgin NP Sprague Dawley rats (250-300 g, 14-16 weeks, Charles River, Canada) were used for all experiments and housed in the University of Vermont Animal Care Facility. Animals were randomly selected and grouped as untreated (N=4), treated with recombinant human relaxin-2 (relaxin, 4 μg/hr; N=14), relaxin plus a specific PPARγ inhibitor GW9662 (10 mg/kg daily in food; N=8), or vehicle (20 mM sodium acetate; N=14) for 10 days through osmotic minipumps (Alzet 2ML2, Durect Corp., Cupertino, Calif., USA). GW9662 treatment was started 1 day before and for the duration of relaxin treatment to ensure PPARγ was inhibited. Animals were anesthetized with 3% isoflurane and minipumps implanted subcutaneously in the back of the neck. All animals received post-surgical analgesic (buprenorphine, 50 μg/kg, s.c.). […]
Vessel Preparation and Pressurized Arteriograph System: After collecting trunk blood, the brain was quickly removed and placed in cold physiological salt solution (PSS). […] Temperature and pH were continuously measured and maintained at 37.0±0.5° C. and 7.40±0.05, respectively. […]
Vascular Reactivity and Structural Characteristics in PA and MCA: For the first set of experiments, PA and MCA were equilibrated for 1 hour at 25 mmHg, after which myogenic activity was determined by stepwise increases in pressure from 40 to 100 mmHg for PA or 50 to 175 mmHg for MCA. ID and WT were measured at each pressure once stable. Changes in ID and WT were measured in PA only in response to small- (SKCa) and intermediate- (IKCa) conductance calcium-activated potassium channels blockers, apamin (3×10^−7 M) and TRAM-34 (10^−6 M), respectively. […] We therefore assessed the effect of relaxin on constriction of PA in response to SKCa/IKCa channel inhibition in order to assess this unique pathway. […]

With relaxin, the “Structure of MCA” value is listed as “no effect” and the “Tone of MCA” value was “did not significantly affect”. Moreover, under “any pressure”, the “Active diameters of MCA” value is “no effect”.
